Reference: PubChem BioAssay AID228 (DTP/NCI, 2004)
Where “and” joins values, the source holds several entries; their conditions need not be identical. Identical values can stand only once. Records with an inconclusive call do not appear.

Tested on: BDF1 mice, Friend leukemia sc, tumor weight T/C
Experiment: NCI In Vivo Anticancer Drug Screen. Data for tumor model Friend Virus Leukemia (Solid) (subcutaneous) in B6D2F1 (BDF1) mice
Details: endpoint: mean tumor weight, higher = larger tumour
Description: The antitumor activity of compounds was measured in mice bearing transplantable tumors. Survival or tumor size were measured and the results are expressed as the measurement made in the treated group (T) divided by the measurement made in the vehicle treated control group (C). The tumor model used in this assay is Friend Virus Leukemia (Solid) (subcutaneous) in B6D2F1 (BDF1) mice

[1] = dose: 200.0 mg/kg/injection, schedule: Q01DX011 (sc), vehicle: steriod suspending solution
[2] = dose: 1.5 mg/kg/injection, schedule: Q01DX011 (ip), vehicle: carboxymethylcellulose (CMC)

CCC(=O)O[C@H]1CC[C@H]2[C@@H]3CCC4=CC(=O)CC[C@]4(C)[C@H]3CC[C@]12C
T/C (dose: 1.0 mg/kg/injection, schedule: Q01DX011 (sc), vehicle: steriod suspending solution): 84 % of control | T/C (dose: 5.0 mg/kg/injection, schedule: Q01DX011 (sc), vehicle: steriod suspending solution): 104 % of control | T/C (dose: 10.0 mg/kg/injection, schedule: Q01DX011 (sc), vehicle: steriod suspending solution): 96 % of control | T/C (dose: 20.0 mg/kg/injection, schedule: Q01DX011 (sc), vehicle: steriod suspending solution): 81 % of control | T/C (dose: 40.0 mg/kg/injection, schedule: Q01DX011 (sc), vehicle: steriod suspending solution): 89 % of control | T/C (dose: 80.0 mg/kg/injection, schedule: Q01DX011 (sc), vehicle: steriod suspending solution): 76 % of control | T/C (dose: 125.0 mg/kg/injection, schedule: Q01DX011 (sc), vehicle: steriod suspending solution): 199 % of control | T/C [1]: 158 % of control | T/C (dose: 250.0 mg/kg/injection, schedule: Q01DX011 (sc), vehicle: steriod suspending solution): 207 % of control | T/C (dose: 300.0 mg/kg/injection, schedule: Q01DX011 (sc), vehicle: steriod suspending solution): 94 % of control | T/C (dose: 400.0 mg/kg/injection, schedule: Q01DX011 (sc), vehicle: steriod suspending solution): 185 % of control and 201 % of control | T/C (dose: 500.0 mg/kg/injection, schedule: Q01DX011 (sc), vehicle: steriod suspending solution): 171 % of control and 191 % of control and 257 % of control

CC(C)(c1ccccc1)c1ccc(O)cc1
T/C (dose: 37.5 mg/kg/injection, schedule: Q01DX011 (ip), vehicle: carboxymethylcellulose (CMC)): 94 % of control | T/C (dose: 75.0 mg/kg/injection, schedule: Q01DX011 (ip), vehicle: carboxymethylcellulose (CMC)): 107 % of control | T/C (dose: 150.0 mg/kg/injection, schedule: Q01DX011 (ip), vehicle: carboxymethylcellulose (CMC)): 87 % of control

CCC[CH2][Sn]1([CH2]CCC)[O]C(=O)C[S]1
T/C (dose: 0.62 mg/kg/injection, schedule: Q01DX011 (ip), vehicle: carboxymethylcellulose (CMC)): 98 % of control | T/C (dose: 1.25 mg/kg/injection, schedule: Q01DX011 (ip), vehicle: carboxymethylcellulose (CMC)): 68 % of control

CN=C(N)c1ccc(N=C(N)c2ccc(C(N)=Nc3ccc(C(N)=NC)cc3)cc2)cc1
T/C (dose: 7.5 mg/kg/injection, schedule: Q01DX011 (ip), vehicle: saline): 182 % of control | T/C (dose: 10.0 mg/kg/injection, schedule: Q01DX011 (ip), vehicle: saline): 183 % of control | T/C (dose: 15.0 mg/kg/injection, schedule: Q01DX011 (ip), vehicle: saline): 165 % of control

Nc1nc(N)c(N=Nc2ccccc2)c(=O)[nH]1
T/C (dose: 50.0 mg/kg/injection, schedule: Q01DX011 (ip), vehicle: carboxymethylcellulose (CMC)): 74 % of control | T/C (dose: 100.0 mg/kg/injection, schedule: Q01DX011 (ip), vehicle: carboxymethylcellulose (CMC)): 70 % of control | T/C (dose: 200.0 mg/kg/injection, schedule: Q01DX011 (ip), vehicle: carboxymethylcellulose (CMC)): 60 % of control

CCOC(=O)NP(=O)(N1CC1)N1CC1
T/C (dose: 2.87 mg/kg/injection, schedule: Q01DX011 (ip), vehicle: carboxymethylcellulose (CMC)): 78 % of control | T/C (dose: 4.75 mg/kg/injection, schedule: Q01DX011 (ip), vehicle: carboxymethylcellulose (CMC)): 77 % of control | T/C (dose: 9.5 mg/kg/injection, schedule: Q01DX011 (ip), vehicle: carboxymethylcellulose (CMC)): 36 % of control | T/C (dose: 19.0 mg/kg/injection, schedule: Q01DX011 (ip), vehicle: carboxymethylcellulose (CMC)): 5 % of control

CCCn1cnc2c(=S)nc(N)[nH]c21
T/C (dose: 0.67 mg/kg/injection, schedule: Q01DX011 (ip), vehicle: carboxymethylcellulose (CMC)): 67 % of control | T/C (dose: 1.0 mg/kg/injection, schedule: Q01DX011 (ip), vehicle: carboxymethylcellulose (CMC)): 67 % of control | T/C [2]: 28 % of control | T/C (dose: 2.9 mg/kg/injection, schedule: Q01DX011 (ip), vehicle: carboxymethylcellulose (CMC)): 32 % of control | T/C (dose: 4.4 mg/kg/injection, schedule: Q01DX011 (ip), vehicle: carboxymethylcellulose (CMC)): 32 % of control

N=[N+]=CC(=O)OCC(N)C(=O)O (configuration not stated)
T/C (dose: 0.38 mg/kg/injection, schedule: Q01DX011 (ip), vehicle: carboxymethylcellulose (CMC)): 49 % of control | T/C (dose: 0.75 mg/kg/injection, schedule: Q01DX011 (ip), vehicle: carboxymethylcellulose (CMC)): 37 % of control | T/C [2]: 39 % of control and 44 % of control | T/C (dose: 1.8 mg/kg/injection, schedule: Q01DX011 (ip), vehicle: carboxymethylcellulose (CMC)): 108 % of control | T/C (dose: 9.0 mg/kg/injection, schedule: Q01DX011 (ip), vehicle: carboxymethylcellulose (CMC)): 33 % of control | T/C (dose: 12.0 mg/kg/injection, schedule: Q01DX011 (ip), vehicle: carboxymethylcellulose (CMC)): 22 % of control and 44 % of control | T/C (dose: 15.0 mg/kg/injection, schedule: Q01DX011 (ip), vehicle: carboxymethylcellulose (CMC)): 29 % of control

COc1ccc(-c2coc3cc(OC)c(OC)c(OC)c3c2=O)cc1
T/C (dose: 50.0 mg/kg/injection, schedule: Q01DX011 (sc), vehicle: steriod suspending solution): 299 % of control | T/C (dose: 100.0 mg/kg/injection, schedule: Q01DX011 (sc), vehicle: steriod suspending solution): 250 % of control | T/C [1]: 275 % of control
